Counter-ions that a name gives are not always drawn.
Key:
Bcl-2 protein = Bcl-2 protein (histag-Bcl-2, UniProtKB P10415) (Homo sapiens (Human), UniProt P10415); test: Inhibition of Bcl-2 by the fluorescence polarisation technique; type: binding; conditions: fluorescence polarisation test; method A, or method B where underlined (underlining not visible); read-out: IC50 (nM) Bcl-2 FP
Text: Inhibition of Bcl-2 by the fluorescence polarisation technique

[1] = tested on: RS4;11 leukaemia tumour line; test: In vitro cytotoxicity, Microculture Tetrazolium Assay (MTT); type: cell-based; conditions: Homo sapiens; RS4;11 cells, 48 hours exposure
Procedure: The cytotoxicity studies were carried out on the RS4;11 leukaemia tumour line.
The cells are distributed onto microplates and exposed to the test compounds for 48 hours. The cell viability is then quantified by a colorimetric assay, the Microculture Tetrazolium Assay (Cancer Res., 1987, 47, 939-942).

Chain of Bcl-2 protein (P10415 whole entry): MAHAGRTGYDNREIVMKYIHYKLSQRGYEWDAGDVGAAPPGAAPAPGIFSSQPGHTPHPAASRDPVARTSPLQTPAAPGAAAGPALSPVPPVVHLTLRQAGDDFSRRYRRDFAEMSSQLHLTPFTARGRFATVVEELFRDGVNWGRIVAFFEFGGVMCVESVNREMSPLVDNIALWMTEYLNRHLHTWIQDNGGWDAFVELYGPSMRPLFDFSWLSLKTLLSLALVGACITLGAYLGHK

| Compound | IC50 (Bcl-2 protein) [nM] | IC50 [1] [nM] |
| --- | --- | --- |
| Cc1cc(C(=O)N(c2ccc(O)cc2)c2ccc(O)cc2)cn1-c1cc(Cl)ccc1C(=O)N1Cc2ccccc2C[C@H]1CN1CCN(C)CC1 [Example 67, 1-(5-Chloro-2-{[(3S)-3-[(4-methylpiperazin-1-yl)methyl]-3,4-dihydroisoquinolin-2(1H)-yl]carbonyl}phenyl)-N,N-bis(4-hydroxyphenyl)-5-methyl-1H-pyrrole-3-carboxamide] | 5.9 | 101 |
| Cc1cc(C(=O)N(c2ccccc2)c2ccc(O)cc2)cn1-c1ccc(Br)cc1C(=O)N1Cc2ccccc2C[C@H]1CN1CCN(C)CC1 [Example 29, 1-(4-Bromo-2-{[(3S)-3-[(4-methylpiperazin-1-yl)methyl]-3,4-dihydroisoquinolin-2(1H)-yl]carbonyl}phenyl)-N-(4-hydroxyphenyl)-5-methyl-N-phenyl-1H-pyrrole-3-carboxamide] | 44.6 | 1010 |
| COc1cc(-n2cc(C(=O)N(c3ccccc3)c3ccc(O)cc3)c3ccccc32)c(C(=O)N2Cc3ccccc3C[C@H]2CN2CCCCC2)cc1O [Example 176, 1-{4-Hydroxy-5-methoxy-2-[(3S)-3-(piperidin-1-ylmethyl)-1,2,3,4-tetrahydroisoquinoline-2-carbonyl]phenyl}-N-(4-hydroxyphenyl)-N-phenyl-1H-indole-3-carboxamide hydrochloride] | 6.2 | 225 |
| COc1ccc(C(=O)N2Cc3ccccc3C[C@H]2CN2CCN(C)CC2)c(-n2cc(C(=O)N(c3ccc(O)cc3)c3ccc4c(ccn4C)c3)c3ccccc32)c1 [Example 205, N-(4-Hydroxyphenyl)-1-{5-methoxy-2-[(3S)-3-[(4-methylpiperazin-1-yl)methyl]-1,2,3,4-tetrahydroisoquinoline-2-carbonyl]phenyl}-N-(1-methyl-1H-indol-5-yl)-1H-indole-3-carboxamide] | 4.3 | 123 |
| CCCCN(CCCC)C(=O)c1cn(-c2ccc(NC(=O)COc3ccccc3)cc2C(=O)N2Cc3ccccc3C[C@H]2CN2CCN(C)CC2)c2ccccc12 [Example 200, N,N-Dibutyl-1-{2-[(3S)-3-[(4-methylpiperazin-1-yl)methyl]-1,2,3,4-tetrahydroisoquinoline-2-carbonyl]-4-(2-phenoxyacetamido)phenyl}-1H-indole-3-carboxamide] | 155 | 2080 |
| Cc1cc(C(=O)N(c2ccc(O)cc2)c2ccc3c(ccn3C)c2)cn1-c1cc2c(cc1C(=O)N1Cc3ccccc3C[C@H]1CN1CCN(C)CC1)OCO2 [Example 90, N-(4-Hydroxyphenyl)-5-methyl-N-(1-methyl-1H-indol-5-yl)-1-(6-{[(3S)-3-[(4-methylpiperazin-1-yl)methyl]-3,4-dihydroisoquinolin-2(1H)-yl]carbonyl}-1,3-benzodioxol-5-yl)-1H-pyrrole-3-carboxamide] | 3.6 | 76.6 |
| CN1CCN(C[C@@H]2Cc3ccccc3CN2C(=O)c2cc3c(cc2-n2cc(C(=O)N(c4ccccc4)c4ccc(O)cc4)c4ccccc42)OC[C@H](COCc2ccccc2)O3)CC1 [Example 188, 1-[(2S)-2-[(Benzyloxy)methyl]-7-[(3S)-3-[(4-methylpiperazin-1-yl)-methyl]-1,2,3,4-tetrahydroisoquinoline-2-carbonyl]-2,3-dihydro-1,4-benzodioxin-6-yl]-N-(4-hydroxyphenyl)-N-phenyl-1H-indole-3-carboxamide] | 16.8 | 68 |
| CN1CCN(C[C@@H]2Cc3ccccc3CN2C(=O)c2cc(F)c(Cl)cc2-n2cc(C(=O)N(c3ccc(O)cc3)c3ccc4c(ccn4C)c3)c3ccccc32)CC1 [Example 78, 1-(5-Chloro-4-fluoro-2-{[(3S)-3-[(4-methylpiperazin-1-yl)methyl]-3,4-dihydroisoquinolin-2(1H)-yl]carbonyl}phenyl)-N-(4-hydroxyphenyl)-N-(1-methyl-1H-indol-5-yl)-1H-indole-3-carboxamide hydrochloride] | 3.7 | 81.4 |

Reference: patent US9765056B2, “Indole and pyrrole compounds, a process for their preparation and pharmaceutical compositions containing them” (LES LABORATOIRES SERVIER, priority 2013, dated 2017)
